In data set [1] the target is T1, trypsin from bovine pancreas (Bos taurus, UniProt P00760).
T1 construct: from tissue; host or cells: bovine pancreas
T1 sequence (P00760 24-246): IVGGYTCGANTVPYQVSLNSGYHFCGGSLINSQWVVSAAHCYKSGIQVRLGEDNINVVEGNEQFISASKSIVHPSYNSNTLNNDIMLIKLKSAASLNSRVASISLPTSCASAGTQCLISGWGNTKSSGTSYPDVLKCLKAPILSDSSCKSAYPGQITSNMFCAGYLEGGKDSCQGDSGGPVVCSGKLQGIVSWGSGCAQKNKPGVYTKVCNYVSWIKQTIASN
Description: Determination of the specificity of the inhibitors: Ki of trypsin, substrate Chromozyme TRY. Type of data set: biochemical. The note with it: for Ki: 0.5 nM bovine pancreas trypsin, pH 7.8, 37° C., 10 minute preincubation; for Specificity Try/Thr: ratio Ki trypsin / Ki thrombin. Here is the method:
The specificity of the inhibitors towards thrombin and trypsin was determined. The Ki of trypsin was determined in an analogous manner to the determination of the Ki of thrombin. The reaction mixture was composed as follows--buffer: 200 mM triethanolamine, 20 mM CaCl2, pH 7.8; 37° C.; enzyme: 0.5 nM trypsin from bovine pancreas; substrate: 500 μM carbobenzoxy-L-valyl-glycyl-L-arginine-4-nitranilide (Chromozyme TRY, from Boehringer Mannheim). The enzymatic reaction was started after a 10 minute preincubation by addition of the substrate.

Data set [2] addresses T2, human thrombin (Homo sapiens, UniProt P00734).
T2 construct: By proteolysis the proenzyme prothrombin is converted into thrombin
Kind of data set: Determination of the inhibition constants (Ki) for thrombin, chromogenic substrate S-2238. Type of data set: biochemical. The note with it: 100 pM human thrombin, pH 7.8, 37° C., 10 minutes preincubation, tight-binding evaluation. Here is the method:
The inhibition constants (Ki) of the compounds of the formula I were determined in established enzyme-kinetic procedures. […] Inhibitor and enzyme were preincubated for 10 minutes, and the reaction was started by addition of the chromogenic substrate S2238. For the evaluation of the kinetics, the mathematical algorithm for tight-binding was used, which gave Ki values and the inhibition type with the aid of non-linear regression.

For data set [3], the system named is CD rats. Description: Determination of the acute toxicity. Particulars: i.v., survival on day 1, Litchfield & Wilcoxon method. The format is in vivo, rat. Here is the method:
To determine the acute toxicity, CD rats were injected i.v. on day 0 with different doses of the test substance dissolved in 0.5 mL of physiol. NaCl solution. Control groups received only 0.5 mL of physiol. NaCl solution. 2 rats were used per concentration of the test substance. The number of rats surviving on day 1 was determined and the LD5, LD50 and LD95 were calculated by the Litchfield & Wilcoxon method. […] The results are summarized in Table I. Pharmacological data and activities of some selected compounds: […]

The subject of data set [4] is thrombin. Particulars: cited from earlier work.

These results are taken from patent US5556941A, “Glycopeptide derivatives, a process for their preparation and pharmaceutical agents containing these compounds” (Behringwerke Aktiengesellschaft, priority 1992, dated 1996).

The term Ki denotes the dissociation constant of the complex between target and ligand, obtained from inhibition or displacement. A higher Ki goes with a looser hold on the target.

On to `COC(=O)C1OC(NC(=O)C[C@H](NS(=O)(=O)c2c(C)cc(OC)c(C)c2C)C(=O)N[C@H](Cc2ccc(C(=N)N)cc2)C(=O)N2CCCCC2)C(OC(C)=O)C(OC(C)=O)C1OC(C)=O.Cl` (stereo partly drawn) [Compound 24, 2-N-(4-Methoxy-2,3,6-trimethyl-benzenesulfonyl)-4-N-[methyl (2,3,4-tri-O-acetyl-β-D-glucopyranosyl)uronate]-L-asparaginyl-4-amidino-D-phenylalanine-piperidide hydrochloride], for which the Ki in data set [1] stood at 231 nM; in data set [2], 0.8 nM. The “Specificity Try/Thr” value in data set [1] was found to be 289. Also, the “LD50 (rat)” value in data set [3] is given as 46 mg/kg.
Consider `COc1cc(C)c(S(=O)(=O)N[C@@H](CC(=O)N[C@@H]2O[C@H](COC(C)=O)[C@@H](OC(C)=O)[C@H](OC(C)=O)[C@H]2OC(C)=O)C(=O)N[C@H](Cc2ccc(C(=N)N)cc2)C(=O)N2CCCCC2)c(C)c1C.Cl` [Compound 25, 2-N-(4-Methoxy-2,3,6-trimethyl-benzenesulfonyl)-4-N-(2,3,4,6-tetra-O-acetyl-β-D-glucopyranosyl)-L-asparaginyl-4-amidino-D-phenylalanine-piperidide hydrochloride], for which, in data set [1], affinity was put at a Ki of 283 nM and the “Specificity Try/Thr” value worked out at 118. For the same compound, the inhibitory constant (Ki) in data set [2] worked out at 2.4 nM. The “LD50 (rat)” value in data set [3] is 55 mg/kg.
For the compound `COc1cc(C)c(S(=O)(=O)N[C@@H](CC(=O)N[C@@H]2O[C@H](C(=O)O)[C@@H](O)[C@H](O)[C@H]2O)C(=O)N[C@H](Cc2ccc(C(=N)N)cc2)C(=O)N2CCCCC2)c(C)c1C.Cl` [Compound 30, 2-N-(4-Methoxy-2,3,6-trimethyl-benzenesulfonyl)-4-N-[(β-D-glucopyranosyl)-uronic acid]-L-asparaginyl-4-amidino-D-phenylalanine-piperidide hydrochloride], the Ki in data set [1] stood at 349 nM; in data set [2], 0.085 nM. Moreover, the “Specificity Try/Thr” value in data set [1] came to 4106. Also, the “LD50 (rat)” value in data set [3] is given as 51 mg/kg.
As to `COc1cc(C)c(S(=O)(=O)N[C@@H](CC(=O)N[C@@H]2O[C@H](CO)[C@@H](O)[C@H](O)[C@H]2O)C(=O)N[C@H](Cc2ccc(C(=N)N)cc2)C(=O)N2CCCCC2)c(C)c1C.Cl` [Compound 31, 2-N-(4-Methoxy-2,3,6-trimethyl-benzenesulfonyl)-4-N-[(β-D-glucopyranosyl)-L-asparaginyl-4-amidino-D-phenylalanine-piperidide hydrochloride], the inhibitory constant (Ki) in data set [1] was found to be 501 nM; in data set [2], 0.075 nM.
With `COc1cc(C)c(S(=O)(=O)N[C@@H](CC(=O)N[C@@H]2O[C@H](CO)[C@@H](O)[C@H](O)[C@H]2O)C(=O)N[C@H](Cc2ccc(C(=N)N)cc2)C(=O)N2CCCCC2)c(C)c1C.Cl` [Compound 31], the “Specificity Try/Thr” value in data set [1] is 6680. Moreover, the “LD50 (rat)” value in data set [3] came out at 45 mg/kg.
As to `COc1cc(C)c(S(=O)(=O)N[C@@H](CC(=O)N[C@@H]2O[C@H](CO)[C@@H](O)[C@H](O)[C@H]2NC(C)=O)C(=O)N[C@H](Cc2ccc(C(=N)N)cc2)C(=O)N2CCCCC2)c(C)c1C.Cl` [Compound 32, 2-N-(4-Methoxy-2,3,6-trimethyl-benzenesulfonyl)-4-N-(2-acetamido-2-deoxy-β-D-glucopyranosyl)-L-asparaginyl-4-amidino-D-phenylalanine-piperidide hydrochloride], in data set [1], the affinity corresponds to a Ki of 528 nM and the “Specificity Try/Thr” value is 480. For the same compound, the Ki in data set [2] amounted to 1.1 nM. In addition, the “LD50 (rat)” value in data set [3] is 53 mg/kg.
Turning to `COc1cc(C)c(S(=O)(=O)N[C@@H](CC(=O)N[C@@H]2O[C@H](CO)[C@H](O)[C@H](O)[C@H]2O)C(=O)N[C@H](Cc2ccc(C(=N)N)cc2)C(=O)N2CCCCC2)c(C)c1C.Cl` [Compound 41, 2-N-(4-Methoxy-2,3,6-trimethyl-benzenesulfonyl)-4-N-(β-D-galactopyranosyl)-L-asparaginyl-4-amidino-D-phenylalanine-piperidide hydrochloride], the figures for the Ki in data set [1] and in data set [2] were 375 nM and 0.04 nM, respectively. Further, the “Specificity Try/Thr” value in data set [1] was 9375. Moreover, the “LD50 (rat)” value in data set [3] is listed as 50 mg/kg.
The corresponding values for `COc1cc(C)c(S(=O)(=O)N[C@@H](CO[C@@H]2OC[C@@H](O)[C@@H](O)[C@H]2O)C(=O)N[C@H](Cc2ccc(C(=N)N)cc2)C(=O)N2CCCCC2)c(C)c1C.I` [Compound 42, 2-N-(4-Methoxy-2,3,6-trimethyl-benzenesulfonyl)-3-O-(β-D-ribo-pyranosyl)-L-seryl-4-amidino-D-phenylalanine-piperidide hydroiodide] are 650 nM, 1.3 nM, 500 and 60 mg/kg.
In the case of `COc1cc(C)c(S(=O)(=O)N[C@@H](CC(=O)O)C(=O)N[C@H](Cc2ccc(C(=N)N)cc2)C(=O)N2CCCCC2)c(C)c1C.Cl` [Compound 43, 2-N-(4-Methoxy-2,3,6-trimethyl-benzenesulfonyl)-L-Asp-4-amidino-D-phenylalanine-piperidide×HCl], in data set [1], the Ki is 187 nM and the “Specificity Try/Thr” value is 125. In data set [2], this compound registered a Ki of 1.5 nM. For the same compound, in data set [3], the “LD50 (rat)” value turned out to be 62 mg/kg.
On to `COc1cc(C)c(S(=O)(=O)N[C@@H](CC(=O)N[C@H]2O[C@@H](C)[C@@H](O)[C@@H](O)[C@@H]2O)C(=O)N[C@H](Cc2ccc(C(=N)N)cc2)C(=O)N2CCCCC2)c(C)c1C.Cl` [Compound 49, 2-N-(4-Methoxy-2,3,6-trimethyl-benzenesulfonyl)-4-N-(β-L-fucopyranosyl)-L-aspaginyl-4-amidino-D-phenylalanine-piperidide hydrochloride], for which, in data set [1], the Ki was determined as 531 nM and the “Specificity Try/Thr” value is listed as 5310. The Ki in data set [2] was 0.1 nM. In addition, in data set [3], the “LD50 (rat)” value was determined as 52 mg/kg.
Regarding `COc1cc(C)c(S(=O)(=O)N[C@@H](CC(=O)N[C@@H]2O[C@H](CO)[C@H](O)[C@H](O)[C@H]2NC(C)=O)C(=O)N[C@H](Cc2ccc(C(=N)N)cc2)C(=O)N2CCCCC2)c(C)c1C.Cl` [Compound 50, 2-N-(4-Methoxy-2,3,6-trimethyl-benzenesulfonyl)-4-N-(2-acetamido-2-deoxy-β-D-galactopyranosyl)-L-asparaginyl-4-amidino-D-phenylalanine-piperididehydrochloride], in data set [1], the Ki was 608 nM and the “Specificity Try/Thr” value amounted to 289. In addition, in data set [2], the affinity, expressed as Ki, was 2.1 nM. The “LD50 (rat)” value in data set [3] came to 64 mg/kg.
For `N=C(N)c1ccc(CC(NC(=O)CNS(=O)(=O)c2ccc3ccccc3c2)C(=O)N2CCCCC2)cc1` (centres unmarked) [NAPAP, 2-N-(2-naphthalenesulfonylglycyl)-4-amidino-phenylalaninc piperidide], the specificity for thrombin entry in data set [4] is reported as “too low”.
